# Source: PMC12378234, “Enzyme-mediated aminoglycoside resistance without target mimicry” (Communications Chemistry, 2025)
# Values joined by “and” are separate entries in the source; they are usually repeats but may differ in a detail not shown here. Identical values can stand only once. Like-named read-outs stand apart in the source and are kept apart here.
# Assays:
# [1] = target: AAC(3)-XIa (Corynebacterium striatum, UniProt A0ABX7DED9); experiment: Isothermal titration calorimetry; assay type: binding; conditions: 25 °C, with coenzyme A, n = 3
# Experimental: (§1) To accurately measure protein ligand interactions, the concentration of our proteins of interest was measured spectrophotometrically using the NanoDrop OneC Spectrometer (Thermo Scientific). ITC experiments were performed on a MicroCal iTC 200 (General Electric) at 25 °C with stirring at 750 rpm. Unique buffer solutions were used for each enzyme. AAC(3)-Ia was prepared in 50 mM HEPES, pH 7, and 150 mM NaCl. AAC(3)-IIIa was prepared in 120 mM Tris, pH 7.5, and 150 mM NaCl. AAC(3)-XIa was prepared in 20 mM Tris, pH 7.5, and 150 mM NaCl. The cell contained 550 μM AAC(3)-Ia, 350 μM AAC(3)-IIIa, or 450 μM AAC(3)-XIa. All experiments also contained 5000 μM of coenzyme A trilithium salt in the cell. […] In all ITC experiments, aminoglycosides were prepared in the same buffering solution as the target protein. The ligands were injected 29 times ([…] per injection) with a 180 s interval between injections. Results were analyzed using ORIGIN software version 7E (MicroCal) using the molecular weight of a single protomer of each protein and fitted with a two-set of sites binding model (Supplementary Fig. 5). Data analysis was performed in Microsoft Excel and GraphPad5 software. One-way ANOVA and Tukey’s multiple comparison tests were used to determine the statistical significance of binding affinities.
# [2] = target: AAC(3)-Ia (Acinetobacter baumannii, UniProt D7R512); experiment: Isothermal titration calorimetry; assay type: binding
# Experimental: as §1
# [3] = target: T1, AAC(3)-IIIa (Pseudomonas aeruginosa, UniProt P29808); experiment: Isothermal titration calorimetry; assay type: binding, P. aeruginosa
# T1 construct: 6xHis-tag (thrombin-cleavable, pET15b) (N); made in house; host or cells: LOBSTR E. coli
# Experimental: as §1
# [4] = system: BL21(DE3) E. coli transformed with pUCP18 vector expressing untagged AAC(3)-XIa; assay type: cell-based
# Experimental: (§2) Ten milliliters of LB containing […] ampicillin were inoculated from glycerol stocks of transformed BL21(DE3) E. coli containing genes expressing the proteins of interest in pUCP18 vectors. These cultures were incubated at 37 °C with 200 rpm agitation for 16 h. Turbidity was measured through OD600 with a NanoDrop OneC Spectrometer (Thermo Scientific). From the initial cultures, secondary 10 mL cultures were prepared with OD600 values of 0.1. These cultures were grown until OD600 values of 0.4–0.6 were reached and diluted to bring all cultures to the same OD600. Cultures were induced with 1 mM Isopropyl β-D-1-thiogalactopyranoside and incubated for 4 h. Two microliters of culture was added to 198 μL of LB with an appropriate aminoglycoside titration concentration. Each titration point was repeated n = 4 times. The formulated 96-well culture plate (Sarstedt) had OD600 measured on a 20-min interval over 17 h using a BioTek Cytation 5 Cell Imaging Multimode Reader, incubating at 37 °C with 282 cpm orbital agitation. Experiments were repeated with fresh cultures on separate days to ensure consistent trends. Data was analyzed in Microsoft Excel and GraphPad5. The remainder of the culture immediately had its RNA isolated for qPCR experiments.
# [5] = system: BL21(DE3) E. coli transformed with pUCP18 vector expressing untagged AAC(3)-IIIa; assay type: cell-based; conditions: E. coli expressing AAC(3)-IIIa; 12 μg mL^−1 antibiotic; 17 h
# Experimental: as §2
# [6] = system: BL21(DE3) E. coli transformed with pUCP18 vector expressing untagged AAC(3)-Ia; assay type: cell-based; conditions: E. coli expressing AAC(3)-Ia; 12 μg mL^−1 antibiotic; 17 h
# Experimental: as §2
# [7] = AAC(3)-XIa, second set of sites
# [8] = AAC(3)-Ia, first set of sites, 25 °C, with coenzyme A, n = 3
# [9] = AAC(3)-Ia, second set of sites, 25 °C, with coenzyme A, n = 3
# [10] = first set of sites, 25 °C, with coenzyme A, n = 3
# [11] = second set of sites, 25 °C, with coenzyme A, n = 3
# T1 sequence (P29808 whole entry): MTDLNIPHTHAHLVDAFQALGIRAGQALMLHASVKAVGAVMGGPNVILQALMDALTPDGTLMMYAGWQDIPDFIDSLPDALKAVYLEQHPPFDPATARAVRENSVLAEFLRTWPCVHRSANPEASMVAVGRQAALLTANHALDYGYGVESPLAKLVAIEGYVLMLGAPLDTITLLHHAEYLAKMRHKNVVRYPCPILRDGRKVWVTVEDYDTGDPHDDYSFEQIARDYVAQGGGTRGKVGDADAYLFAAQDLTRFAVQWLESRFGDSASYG
structure (smiles),measurement,setting,value
"CN[C@@H]1[C@@H](O)[C@@H](O[C@@H]2[C@@H](O)[C@H](O[C@H]3OC(CN)=CC[C@H]3N)[C@@H](N)C[C@H]2N)OC[C@]1(C)O [Sisomicin, sisomicin]",TΔS,"[1]; AAC(3)-XIa, first set of sites",-4.51 ± 0.378 kcal/mol
same,ΔG,"[1]; AAC(3)-XIa, first set of sites",-8.12 ± 0.53 kcal/mol
same,ΔH,"[1]; AAC(3)-XIa, first set of sites","−12,600 ± 372 cal/mol"
same,N (sites),"[1]; AAC(3)-XIa, first set of sites, two-set of sites model",0.51 ± 0.01 sites
same,N2 (sites),[1]; [7],0.36 ± 0.04 sites
same,TΔS 2,[1]; [7],7.295 ± 1.615 kcal/mol
same,ΔG 2,[1]; [7],-6.237 ± 2.237 kcal/mol
same,ΔH 2,[1]; [7],1.058 ± 1.548 kcal/mol
same,Kd,"[1]; Kd2, AAC(3)-XIa, second set of sites",27.1 ± 4.2 µM
same,Kd,"[1]; Kd, AAC(3)-XIa, first set of sites, two-set of sites model",1.1 ± 0.02 µM
same,TΔS,[2]; [8],3.3 ± 0.427 kcal/mol
same,ΔG,[2]; [8],-6.25 ± 0.596 kcal/mol
same,ΔH,[2]; [8],-2.95 ± 0.416 kcal/mol
same,N (sites),"[2]; AAC(3)-Ia, first set of sites, two-set of sites model, 25 °C, with coenzyme A, n = 3",0.50 ± 0.06 sites
same,N2 (sites),[2]; [9],0.54 ± 0.01 sites
same,TΔS 2,[2]; [9],3.45 ± 0.795 kcal/mol
same,ΔG 2,[2]; [9],-5.66 ± 1.1 kcal/mol
same,ΔH 2,[2]; [9],-2.21 ± 0.763 kcal/mol
same,Kd,"[2]; Kd2, AAC(3)-Ia, second set of sites, 25 °C, with coenzyme A, n = 3",71.8 ± 7.5 µM
same,Kd,"[2]; Kd, AAC(3)-Ia, first set of sites, two-set of sites model, 25 °C, with coenzyme A, n = 3",26 ± 0.6 µM
same,Kd,"[2]; Kd, AAC(3)-Ia, individual replicates, raw data behind Fig. 6",26.2 µM and 24.9 µM and 27 µM
same,TΔS,[3]; [10],-0.411 ± 0.318 kcal/mol
same,ΔG,[3]; [10],-8.05 ± 0.474 kcal/mol
same,ΔH,[3]; [10],-8.46 ± 0.351 kcal/mol
same,N (sites),"[3]; first set of sites, two-set of sites model, 25 °C, with coenzyme A, n = 3",0.35 ± 0.03 sites
same,Kd,"[3]; first set of sites, two-set of sites model, 25 °C, with coenzyme A, n = 3, read-out: Kd",1.3 ± 0.1 µM
same,Kd,"[3]; individual replicates, raw data behind Fig. 6, read-out: Kd",1.42 µM and 1.17 µM and 1.23 µM
same,N2 (sites),[3]; [11],0.56 ± 0.04 sites
same,TΔS 2,[3]; [11],2 ± 0.146 kcal/mol
same,ΔG 2,[3]; [11],-7.74 ± 0.204 kcal/mol
same,ΔH 2,[3]; [11],-5.74 ± 0.143 kcal/mol
same,Kd,"[3]; second set of sites, 25 °C, with coenzyme A, n = 3, read-out: Kd2",2.1 ± 0.2 µM
same,OD600 growth curve,"[4]; 3 ug/mL Sisomicin, time point 12:39:10",0.741 and 0.631 and 0.615 and 0.786
same,OD600 growth curve,"[4]; 3 ug/mL Sisomicin, time point 12:59:10",0.747 and 0.634 and 0.621 and 0.795
same,OD600 growth curve,"[4]; 3 ug/mL Sisomicin, time point 13:19:10",0.745 and 0.632 and 0.619 and 0.794
same,OD600 growth curve,"[4]; 3 ug/mL Sisomicin, time point 13:39:10",0.742 and 0.632 and 0.619 and 0.79
same,OD600 growth curve,"[4]; 3 ug/mL Sisomicin, time point 13:59:10",0.738 and 0.632 and 0.618 and 0.787
same,OD600 growth curve,"[4]; 3 ug/mL Sisomicin, time point 14:19:10",0.744 and 0.634 and 0.623 and 0.797
same,OD600 growth curve,"[4]; 3 ug/mL Sisomicin, time point 14:39:10",0.747 and 0.635 and 0.625 and 0.799
same,OD600 growth curve,"[4]; 3 ug/mL Sisomicin, time point 14:59:10",0.745 and 0.635 and 0.627 and 0.795
same,OD600 growth curve,"[4]; 6 ug/mL Sisomicin, time point 12:39:10",0.62 and 0.602 and 0.749 and 0.849
same,OD600 growth curve,"[4]; 6 ug/mL Sisomicin, time point 12:59:10",0.627 and 0.606 and 0.748 and 0.838
same,OD600 growth curve,"[4]; 6 ug/mL Sisomicin, time point 13:19:10",0.634 and 0.612 and 0.751 and 0.829
same,OD600 growth curve,"[4]; 6 ug/mL Sisomicin, time point 13:39:10",0.639 and 0.613 and 0.744 and 0.819
same,OD600 growth curve,"[4]; 6 ug/mL Sisomicin, time point 13:59:10",0.641 and 0.612 and 0.741 and 0.805
same,OD600 growth curve,"[4]; 6 ug/mL Sisomicin, time point 14:19:10",0.645 and 0.615 and 0.738 and 0.792
same,OD600 growth curve,"[4]; 6 ug/mL Sisomicin, time point 14:39:10",0.654 and 0.626 and 0.749 and 0.784
same,OD600 growth curve,"[4]; 6 ug/mL Sisomicin, time point 14:59:10",0.663 and 0.629 and 0.759 and 0.771
same,OD600 growth curve,"[4]; 6 ug/mL Sisomicin, time point 15:19:10",0.67 and 0.64 and 0.762
same,OD600 growth curve,"[4]; 12 ug/mL Sisomicin, time point 12:39:10",0.093 and 0.101 and 0.109 and 0.105
same,OD600 growth curve,"[4]; 12 ug/mL Sisomicin, time point 12:59:10",0.093 and 0.101 and 0.109 and 0.105
same,OD600 growth curve,"[4]; 12 ug/mL Sisomicin, time point 13:19:10",0.093 and 0.101 and 0.108 and 0.104
same,OD600 growth curve,"[4]; 12 ug/mL Sisomicin, time point 13:39:10",0.093 and 0.101 and 0.108 and 0.104
same,OD600 growth curve,"[4]; 12 ug/mL Sisomicin, time point 13:59:10",0.093 and 0.1 and 0.108 and 0.104
same,OD600 growth curve,"[4]; 12 ug/mL Sisomicin, time point 14:19:10",0.093 and 0.1 and 0.108 and 0.103
same,OD600 growth curve,"[4]; 12 ug/mL Sisomicin, time point 14:39:10",0.093 and 0.1 and 0.108 and 0.103
same,OD600 growth curve,"[4]; 12 ug/mL Sisomicin, time point 14:59:10",0.093 and 0.1 and 0.107 and 0.103
same,OD600 growth curve,"[4]; 12 ug/mL Sisomicin, time point 15:19:10",0.093
same,Growth (OD600 growth curve),"[4]; E. coli expressing AAC(3)-XIa, 12 μg mL^−1 antibiotic, 17 h",none of the strains of transformed E. coli were able to grow at all
same,Growth (OD600 growth curve),[5],none of the strains of transformed E. coli were able to grow at all
same,Growth (OD600 growth curve),[6],none of the strains of transformed E. coli were able to grow at all
